Data from ChEMBL document CHEMBL2429799, “Systematic replacement of amides by 1,4-disubstituted[1,2,3]triazoles in Leu-enkephalin and the impact on the delta opioid receptor activity” (Bioorg Med Chem Lett, 2013).
Active and inactive are the calls of the source. The calls are words filed in the database; no cut-off is given here.

Key:
[1] = molecular target: Delta-type opioid receptor (Rattus norvegicus, UniProt P33533); experiment: Displacement of [3H]-deltorphin 2 from delta opioid receptor in rat GH3 cells after 60 mins by scintillation counting analysis; format: cell-based
[2] = molecular target: Delta-type opioid receptor (Mus musculus, UniProt P32300); experiment: Agonist activity at delta opioid receptor in mouse vas deferens assessed as inhibition of electrically-stimulated muscle contraction
[3] = Agonist activity at delta opioid receptor in mouse/rat DRGF11 hybrid cells expressing GFP assessed as induction of ERK1/2 phosphorylation at 10^-9 to 10^-5 M after 5 mins by Western blotting analysis

Sequence of Delta-type opioid receptor (Mus musculus, UniProt P32300) (P32300 whole entry): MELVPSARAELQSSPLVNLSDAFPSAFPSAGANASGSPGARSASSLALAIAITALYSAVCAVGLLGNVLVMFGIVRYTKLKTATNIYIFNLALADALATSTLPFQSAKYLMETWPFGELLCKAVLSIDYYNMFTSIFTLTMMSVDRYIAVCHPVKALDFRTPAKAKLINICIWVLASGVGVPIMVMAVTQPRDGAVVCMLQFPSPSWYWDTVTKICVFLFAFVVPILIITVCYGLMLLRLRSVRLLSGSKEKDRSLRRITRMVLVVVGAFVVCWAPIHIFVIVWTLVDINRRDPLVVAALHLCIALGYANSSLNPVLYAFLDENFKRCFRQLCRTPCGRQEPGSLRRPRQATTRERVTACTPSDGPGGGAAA
Sequence of Delta-type opioid receptor (Rattus norvegicus, UniProt P33533) (P33533 whole entry): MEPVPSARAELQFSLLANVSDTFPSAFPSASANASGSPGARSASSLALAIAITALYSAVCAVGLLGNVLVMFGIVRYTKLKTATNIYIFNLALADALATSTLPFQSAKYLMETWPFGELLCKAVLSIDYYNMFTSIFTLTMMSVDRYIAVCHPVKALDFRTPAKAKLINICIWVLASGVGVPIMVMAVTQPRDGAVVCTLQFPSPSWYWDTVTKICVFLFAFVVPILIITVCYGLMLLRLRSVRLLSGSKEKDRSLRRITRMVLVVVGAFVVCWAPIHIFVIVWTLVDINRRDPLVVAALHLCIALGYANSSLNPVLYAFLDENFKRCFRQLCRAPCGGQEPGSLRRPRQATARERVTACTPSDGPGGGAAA

Compound	Ki [1] [nM]	EC50 [2] [nM]	Activity [3]
CC(C)C[C@H](NC(=O)[C@H](Cc1ccccc1)NC(=O)Cn1cc(CNC(=O)[C@@H](N)Cc2ccc(O)cc2)nn1)C(=O)O	> 1000	> 1500	
CC(C)C[C@@H](C(=O)O)n1cc([C@H](Cc2ccccc2)NC(=O)CNC(=O)CNC(=O)[C@@H](N)Cc2ccc(O)cc2)nn1	89	830	Active
CC(C)C[C@H](NC(=O)[C@H](Cc1ccccc1)n1cc(CNC(=O)CNC(=O)[C@@H](N)Cc2ccc(O)cc2)nn1)C(=O)O	460	> 1500	
CC(C)C[C@H](NC(=O)[C@H](Cc1ccccc1)NC(=O)CNC(=O)Cn1cc([C@@H](N)Cc2ccc(O)cc2)nn1)C(=O)O	> 1000	> 1500	
